Data reported in patent US7476670B2, “Purine derivatives, method for preparing, pharmaceutical compositions and novel use” (Aventis Pharma S.A., priority 2003, dated 2009).

Key:
SRC kinase = biological target: T1, SRC kinase (Homo sapiens, UniProt P12931); test: Assay for inhibition of SRC kinase activity; format: biochemical; settings: fluorescence polarization, read-out: percentage inhibition at 20 μM
T1 construct: purchased Upstate Biotechnology 14-117
Summary of the method: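 Enzyme (12 U/ml final) preincubated 5 min with inhibitor, then PolyGluTyr 4/1 (150 ng/ml) and ATP (5 μM) added in HEPES/NaOH pH 7.6 with MgCl2, MnCl2 and Na2VO4. After 20 min at ambient temperature, phosphopeptide detected by fluorescence polarization with labelled anti-phosphopeptide antibody; percent inhibition reported at 20 μM.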

Candida glabrata = test: Minimum inhibitory concentration in liquid medium, micro method (NCCLS M27-A); format: cell-based; settings: Nakaseomyces glabratus; at least 80% inhibition of growth, read after 24-48 h at 37° C., RPMI 1640; read-out: MIC Candida glabrata
Experimental: (§1) The assay is carried out in a final volume of 40 μl; all the reagents are prepared in a buffer: • 50 mM HEPES pH 7.5 • 0.03% triton X100 • 10 mM MgCl2 • 5% Glycerol • 1 mM DTT 10 μl of the 10-times concentrated inhibitor are added to 5 μl of enzyme (75 ng final concentration), and 5 μl of peptide (1 μM final concentration), then 2.5 μl of incubation buffer containing 40 μM ATP and 2.5 μl of radiolabeled ATP, [^33P]ATP (500 nCi), are added. After incubation for 15 minutes at ambient temperature, 10 μl of incubation buffer containing 192 nM of substrate. […] Reference method for broth dilution antifungal susceptibility testing of yeasts. Approved Standard M27-A. NCCLS, Villanova, Pa.); the minimum concentration with which a visible decrease is observed in the cloudiness of the cell growth (at least 80% compared to a control without product) is the Minimum Inhibitory Concentration (MIC) of the antifungal agent with respect to the strain tested.
(§2) RPMI 1640 medium (liquid) without L-glutamine is supplemented with L-glutamine (0.3 g/l or 10.5 ml of a solution at 200 mM) and buffered with 34.54 g/l (0.165 M) of morpholinepropanesulfonic acid (MOPS). The medium is sterilized by filtration. 100 μl of RPMI medium are distributed into each well of a 96-well plate. The appropriate volume. of the antifungal solution is distributed in the first column of the microplate and supplemented with 200 μl of medium. Doubling dilutions are made so as to establish a range of 11 concentrations in each line of the microplate. The 12th well of each row will serve as a growth control. The cell suspension is prepared from a culture (liquid or agar) or from a frozen vial, and is diluted in RPMI medium so as to obtain a cell suspension at 5×10^3−2×10^4 cells/ml. 100 μl of the cell suspension are distributed in the microplate. For all species of Candida, the MIC is read after 24-48 h, and for Cryptococcus and Aspergillus after 48-72 h, of incubation at 37° C. in a normal atmosphere. The MIC is read by visual reading, determining the well which contains the lowest dose of antifungal agent which causes at least 80% inhibition of the growth of the fungus.

Candida albicans = test: as above; format: cell-based; settings: at least 80% inhibition of growth, read after 24-48 h at 37° C., RPMI 1640, read-out: MIC Candida albicans
Experimental: as §1, §2

Casein Kinase II = test: Assay for inhibition of casein kinase II activity; format: biochemical; settings: [33P]ATP
Experimental: The inhibition of the kinase activity is determined by measuring the phosphorylation of its substrate peptide.
The assay is carried out in a final volume of 50 μl.
The incubation buffer is as follows:
• 30 mM MES pH 6.9 • 15 mM MgCl2 • 195 mM KCl • 7.25 mM DTT 5 μl of the 10-times concentrated inhibitor are added to 25 μl of incubation buffer containing 1 U/μl final concentration of the enzyme (Tebu, SE-124); 10 μl of incubation buffer containing 60 μM final concentration of peptide substrate are then added, and, finally, 10 μl of incubation buffer containing 25 μM ATP and radiolabeled ATP, [^33P]ATP (0.25 μCi), are added. The reaction is stopped after incubation for 30 minutes at ambient temperature. • Results obtained expressed as percentage inhibition at 20 μM • Example 8 93% • Example 30 97% 8) Assay for Inhibition for CAN Kinase II Activity

FAK = FAK (Homo sapiens, UniProt Q05397); test: Assay for inhibition of FAK activity (autophosphorylation); format: biochemical; settings: fluorescence polarization, ATP 1 μM; read-out: IC50s expressed as micromolar
Experimental: The inhibition of the kinase activity is determined by fluorescence polarization, the autophosphorylation of FAK is detected by adding an anti-phosphoprotein antibody coupled to a fluorescent label.
The assay is carried out in a final volume of 30 μl; all the reagents are prepared in a buffer: • 50 mM HEPES pH 7.5 • 0.03% triton X100 • 10 mM MgCl2 • 5% Glycerol • 1 mM DTT 10 μl of the 10-times concentrated inhibitor are added to 5 μl of enzyme (100 ng final concentration), and 5 μl of incubation buffer and 10 μl of ATP (1 μM final concentration) are added.

CaCiv1 = CaCiv1 (Candida albicans, UniProt A0A1D8PH53); test: Assay for inhibition of CIV-CDK (CIV1) activity; format: biochemical
Source text: 1) Assay for Inhibition of CIV-CDK (CIV1) Activity
a) Preparation of the Reagents

T1 sequence (P12931 whole entry): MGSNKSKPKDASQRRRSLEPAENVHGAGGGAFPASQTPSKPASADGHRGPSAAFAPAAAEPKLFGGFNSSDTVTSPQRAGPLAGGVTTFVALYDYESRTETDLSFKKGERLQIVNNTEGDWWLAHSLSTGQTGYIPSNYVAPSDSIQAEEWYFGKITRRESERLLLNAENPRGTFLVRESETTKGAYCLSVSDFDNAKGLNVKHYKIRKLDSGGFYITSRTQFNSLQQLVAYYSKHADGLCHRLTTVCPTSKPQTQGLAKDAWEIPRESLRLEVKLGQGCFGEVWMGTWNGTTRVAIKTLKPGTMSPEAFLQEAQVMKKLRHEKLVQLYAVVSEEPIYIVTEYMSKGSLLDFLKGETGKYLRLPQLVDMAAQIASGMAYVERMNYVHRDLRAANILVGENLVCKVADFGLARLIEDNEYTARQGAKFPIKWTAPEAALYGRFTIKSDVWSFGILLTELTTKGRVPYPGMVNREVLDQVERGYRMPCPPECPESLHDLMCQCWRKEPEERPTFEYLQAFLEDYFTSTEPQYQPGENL
Chain of FAK (Q05397 whole entry, species assumed): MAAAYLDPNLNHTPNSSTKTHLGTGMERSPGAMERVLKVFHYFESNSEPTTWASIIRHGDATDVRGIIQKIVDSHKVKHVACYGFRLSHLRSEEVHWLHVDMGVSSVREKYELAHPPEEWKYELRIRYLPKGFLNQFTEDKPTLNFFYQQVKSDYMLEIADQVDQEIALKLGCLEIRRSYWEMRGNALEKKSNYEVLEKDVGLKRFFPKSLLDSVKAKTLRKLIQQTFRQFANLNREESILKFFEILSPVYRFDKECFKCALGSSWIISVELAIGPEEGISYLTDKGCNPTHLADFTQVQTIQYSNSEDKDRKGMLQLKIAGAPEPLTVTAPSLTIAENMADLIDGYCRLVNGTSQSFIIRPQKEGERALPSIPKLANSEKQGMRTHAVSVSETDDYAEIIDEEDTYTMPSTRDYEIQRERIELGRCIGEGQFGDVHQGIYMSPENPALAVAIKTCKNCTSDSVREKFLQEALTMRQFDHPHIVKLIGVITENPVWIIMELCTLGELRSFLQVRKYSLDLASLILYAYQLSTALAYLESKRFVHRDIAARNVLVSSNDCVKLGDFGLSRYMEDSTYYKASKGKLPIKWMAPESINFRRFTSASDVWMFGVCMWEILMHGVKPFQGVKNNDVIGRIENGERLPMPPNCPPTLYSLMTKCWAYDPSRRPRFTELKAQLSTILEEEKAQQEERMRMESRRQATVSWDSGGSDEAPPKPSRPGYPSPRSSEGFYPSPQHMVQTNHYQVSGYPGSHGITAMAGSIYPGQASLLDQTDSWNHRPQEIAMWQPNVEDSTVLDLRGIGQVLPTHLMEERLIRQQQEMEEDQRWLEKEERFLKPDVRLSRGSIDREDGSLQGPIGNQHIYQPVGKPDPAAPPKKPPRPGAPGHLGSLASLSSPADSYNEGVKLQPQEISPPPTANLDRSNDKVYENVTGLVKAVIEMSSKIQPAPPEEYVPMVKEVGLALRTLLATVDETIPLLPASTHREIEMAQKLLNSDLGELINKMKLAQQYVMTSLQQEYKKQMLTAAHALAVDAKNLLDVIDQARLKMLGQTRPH
Chain of CaCiv1 (A0A1D8PH53 entry or part of it): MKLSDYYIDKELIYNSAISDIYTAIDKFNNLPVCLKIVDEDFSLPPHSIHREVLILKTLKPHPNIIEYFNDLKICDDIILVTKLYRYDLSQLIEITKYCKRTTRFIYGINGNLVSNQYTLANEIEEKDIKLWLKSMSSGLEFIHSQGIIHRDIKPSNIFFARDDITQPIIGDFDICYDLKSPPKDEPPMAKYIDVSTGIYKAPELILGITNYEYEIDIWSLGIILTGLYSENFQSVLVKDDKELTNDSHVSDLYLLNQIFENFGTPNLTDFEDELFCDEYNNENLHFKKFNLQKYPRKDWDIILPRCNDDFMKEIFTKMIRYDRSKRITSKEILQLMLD

Compound | inhibition at 20 µM (SRC kinase) | MIC (Candida glabrata) | MIC (Candida albicans) | percentage inhibition at 20 μM (Casein Kinase II) | IC50 (FAK) | IC50 (CaCiv1)
Cl.N[C@H]1CC[C@H](Nc2nc(-n3cnc4cc(Cl)c(Cl)cc43)c3nc[nH]c3n2)CC1 [Example 8, Trans-N-[6-(5,6-dichloro-1H-benzimidazol-1-yl)-9H-purin-2-yl]-1,4-cyclohexanediamine hydrochloride] | 98% | 16 µg/mL | 16 µg/mL | 93% | 2 µM | 1.3 µM
Cl.Cl.N[C@H]1CC[C@H](Nc2nc(N3CCc4cc([N+](=O)[O-])ccc43)c3nc[nH]c3n2)CC1 [Example 30, Trans-N-[6-(2,3-dihydro-5-nitro-1H-indol-1-yl)-9H-purin-2-yl]-1,4-cyclohexanediamine dihydrochloride] | 99% | 64 µg/mL | 32 µg/mL | 97% | 1 µM | 0.1 µM
